US12286429B2, “5-oxo-1,2,3,5,8,8a-hexahydroindolizine-3-carboxamide derivatives useful as a factor XIa inhibitors” (Janssen Pharmaceutica NV, priority 2021, dated 2025)

Key:
human plasma kallikrein = human plasma kallikrein (Homo sapiens, UniProt P03952); test: Kallikrein inhibition assay utilizing a quenched AMC peptide substrate (FLINT); assay type: biochemical; conditions: 11-point, 3-fold serial dilution, top 1 μM; 30 min preincubation; 2 nM kallikrein; 50 μM Z-Gly-Pro-Arg-AMC; kinetic reads over 30 min
Chain of human plasma kallikrein (P03952 391-638 limits assumed): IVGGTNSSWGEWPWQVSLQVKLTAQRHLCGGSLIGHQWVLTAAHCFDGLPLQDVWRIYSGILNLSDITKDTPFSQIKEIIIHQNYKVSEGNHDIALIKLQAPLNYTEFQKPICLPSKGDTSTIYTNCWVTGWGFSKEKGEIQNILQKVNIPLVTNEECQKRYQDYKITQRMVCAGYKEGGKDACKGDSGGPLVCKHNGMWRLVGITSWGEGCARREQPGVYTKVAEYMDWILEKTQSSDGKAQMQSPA
Chain of human plasma kallikrein (P03952 20-390 partner limits assumed): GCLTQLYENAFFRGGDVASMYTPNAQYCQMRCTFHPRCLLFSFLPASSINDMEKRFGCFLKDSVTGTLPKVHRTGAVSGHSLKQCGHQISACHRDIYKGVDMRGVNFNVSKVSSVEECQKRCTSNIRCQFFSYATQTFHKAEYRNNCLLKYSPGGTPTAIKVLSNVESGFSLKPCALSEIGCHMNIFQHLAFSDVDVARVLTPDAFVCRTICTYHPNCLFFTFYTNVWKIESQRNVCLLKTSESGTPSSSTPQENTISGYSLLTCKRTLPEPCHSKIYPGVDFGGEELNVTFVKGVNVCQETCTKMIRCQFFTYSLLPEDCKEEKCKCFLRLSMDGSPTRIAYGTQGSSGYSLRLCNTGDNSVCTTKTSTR
Description: Biological Example 2: Kallikrein Inhibition Assay Utilizing a Quenched AMC Peptide Substrate
A fluorescence intensity (FLINT) based assay was used to monitor inhibition of human plasma kallikrein. The peptide substrate, Z-Gly-Pro-Arg-AMC (Purchased from Bachem; Catalog #I-1150) was chosen based on its relatively low KM for kallikrein which enables running the assay at lower substrate concentrations to control background fluorescence. The kinetic parameters for this substrate were determined by fitting titration data to the Michaelis-Menten equation yielding a KM=40 μM, kcat=0.76 s^−1, and kcat/KM=18932 M^−1s^−1.
The Kallikrein FLINT assay was used with the following Z-Gly-Pro-Arg-AMC assay buffer: 50 mM Tris, pH 7.5, 100 mM NaCl, 5 mM CaCl2, 0.1 mg/mL BSA, 0.03% CHAPS. Assay buffer was prepared by mixing all ingredients fresh. 2× Z-Gly-Pro-Arg-AMC peptide substrate was prepared by diluting 10 mM stock into 1× assay buffer for a 100 μM working concentration (50 μM final concentration). The 2× kallikrein stock solution was prepared by diluting 14.76 μM stock in 1× assay buffer for a 4 nM working stock solution (2 nM final concentration).
Test compound(s) were run in an 11-point, 3-fold serial dilution with a final top compound concentration of 1 μM. Final DMSO in assay was 2%. Plasma kallikrein was pre-incubated for 30-minute with compound and then 50 μM substrate was added to initiate the reaction. The assay was run with kinetic (KIN) reads at 5 min intervals over 30 minutes. The time course was linear using 2 nM kallikrein greater than 30 minutes. More specifically, the assay was run as follows: • 100 nL of 0.1 mM test compound was dispensed into black 384-well non-binding Greiner BioOne 784900 plate for 1 μM final concentration; • 5 μL of 1× assay buffer was dispensed to columns 24 (low control) and 5 μL 2× human kallikrein enzyme solution was dispensed to columns 1-23 (column 23 high control); • the plate was centrifuged with a “cover” plate at 500 rpm for 1 min • the plate was pre-incubated for 30 minutes at room temperature with plate covered; • 5 μL of 2× Z-Gly-Pro-Arg-AMC peptide substrate was dispensed into the entire plate, columns 1-24; • the plate was centrifuged with a “cover” plate at 500 rpm for 1 min; • the plate was read monitoring fluorescence intensity on the BMG PHERAStar at room temperature, using fluorescence module 340 nm/440 nm.
(§1) Percent inhibition (IC50) curves were generated per compound tested, and data was analyzed using a 4-parameter logistic fit using GeneData Screener. The relative fluorescence unit (RFU) values were normalized to percent inhibition using the following equation: % inhibition=((HC−LC)−(compound−LC)/(HC−LC))*100
where LC—low control=mean signal of […] 100% inhibition of human kallikrein enzyme; HC—high control=mean signal of […]+Z-Gly-Pro-Arg-AMC peptide substrate with DMSO only.
(§2) An 11-point dose response curve for the test compound(s) was generated using GENDATA to determine IC50 value based on the following equation: Y=Bottom+(Top−Bottom)/(1+10^((log IC50−X)*HillSlope))
(§3) where Y is the % inhibition in the presence of X inhibitor concentration, Top=high control=mean signal of human kallikrein enzyme+Z-Gly-Pro-Arg-AMC peptide substrate with DMSO only; Bottom=low control—mean signal of no human kallikrein enzyme or 100% inhibition of human kallikrein enzyme; HillSlope—Hill coefficient; and IC50=concentration of compound with 50% inhibition in relation to top/high control.

Factor XIa = Factor XIa (Homo sapiens, UniProt P03951); test: Factor XIa inhibition assay utilizing a fluorophore-quencher pair peptide substrate (FLINT); assay type: biochemical; conditions: 11-point, 3-fold serial dilution, top 100 nM; 30 min preincubation; 15 μM 5Fam-KLTRAETV-K5Tamra substrate; kinetic reads over 30 min; read-out: FXIa Inhibition IC50
Chain of Factor XIa (P03951 388-625 limits assumed): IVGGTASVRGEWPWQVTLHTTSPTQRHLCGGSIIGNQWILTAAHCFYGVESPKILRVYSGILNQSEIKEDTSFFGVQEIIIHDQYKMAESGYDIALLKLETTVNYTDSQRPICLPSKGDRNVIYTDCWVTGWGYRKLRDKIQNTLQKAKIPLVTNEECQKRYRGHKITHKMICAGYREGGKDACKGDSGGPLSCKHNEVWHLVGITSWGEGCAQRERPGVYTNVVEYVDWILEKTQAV
Chain of Factor XIa (P03951 19-387 partner limits assumed): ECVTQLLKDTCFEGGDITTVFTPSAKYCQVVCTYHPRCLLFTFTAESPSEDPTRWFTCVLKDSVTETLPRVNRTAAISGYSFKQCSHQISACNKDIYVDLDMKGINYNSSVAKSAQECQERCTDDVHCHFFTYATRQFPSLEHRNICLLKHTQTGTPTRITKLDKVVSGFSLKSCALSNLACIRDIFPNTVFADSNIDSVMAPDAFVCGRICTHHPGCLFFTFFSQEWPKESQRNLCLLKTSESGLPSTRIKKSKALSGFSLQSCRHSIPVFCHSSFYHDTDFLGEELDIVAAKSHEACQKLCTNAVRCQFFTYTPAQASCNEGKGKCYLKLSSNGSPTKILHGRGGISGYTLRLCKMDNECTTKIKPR
From the text: Biological Example 1: Factor XIa Inhibition Assay Utilizing a Fluorophore-Quencher Pair Peptide Substrate
A fluorescence intensity (FLINT) based assay was used to monitor inhibition of Factor XIa. The peptide substrate, 5Fam-KLTRAETV-K5Tamra (purchased from New England Peptide) was chosen based on the FXI sequence. Conversion of zymogen FXI to its activated form, FXIa, occurs by proteolytic cleavage by […] at two sites, Arg146 and Arg180. The custom peptide used in this assay was based on the Arg146 cleavage site of FXI. The peptide substrate was designed with a fluorophore-quencher pair, where the fluorescence is quenched until FXIa cleaves the 8-mer peptide after the Arg residue.
The Factor XIa FLINT assay was used with the following 5Fam-KLTRAETV-K5Tamra assay buffer: 50 mM Tris, pH 7.5, 100 mM NaCl, 5 mM CaCl2, 0.1 mg/mL BSA, 0.03% CHAPS. Assay buffer was prepared by mixing all ingredients fresh. 5Fam-KLTRAETV-K5Tamra peptide substrate was first prepared at 10 mM in 100% DMSO, then diluted to 3 mM in 100% DMSO. Assay buffer was then added directly to the 3 mM stock of substrate to prepare the 30 μM 2× working concentration (15 μM final concentration). The 2× Factor XIa stock solution was prepared by diluting 6.562 μM stock in 1× assay buffer for a […].
Test compound(s) were run in an 11-point, 3-fold serial dilution with a final top compound concentration of 100 nM. Final DMSO in assay was 2%. FXIa was preincubated with compound for 30-minutes and then substrate was added to initiate the reaction. The assay was run with kinetic (KIN) reads at 5 min intervals over 30 minutes. […] More specifically, the assay was run as follows: • 100 nL of 0.01 mM test compound was dispensed into black 384-well non-binding Greiner BioOne 784900 plate for 0.1 μM final concentration, • 5 μL of 1× assay buffer was dispensed to column 24 (low control) and 5 μL 2× Factor XIa solution was dispensed to columns 1-23 (column 23 high control); • the plate was centrifuged with a “cover” plate at 500 rpm for 1 min • the plate was pre-incubated for 30 minutes at room temperature with plate covered; • 5 μL of 2×5Fam-KLTRAETV-K5Tamra peptide substrate was dispensed into the entire plate, columns 1-24; • the plate was centrifuged with a “cover” plate at 500 rpm for 1 min; • the plate was read monitoring fluorescence intensity on the BMG PHERAStar at room temperature, using fluorescence module 485 nm/520 nm.
as §1
where LC—low control=mean signal of no Factor XIa or 100% inhibition of Factor XIa; HC—high control=mean signal of Factor XIa+5Fam-KLTRAETV-K5Tamra peptide substrate with DMSO only.
as §2
as §3, with “Factor XIa+5Fam-KLTRAETV-K5Tamra” for “human kallikrein enzyme+Z-Gly-Pro-Arg-AMC”, “Factor XIa” for “human kallikrein enzyme”, “Factor XIa;” for “human kallikrein enzyme;”

Compound: CC(C)(O)c1nc2cc(NC(=O)[C@@H]3CCC4CC(c5c(-n6cnnn6)ccc(Cl)c5F)=CC(=O)N43)ccc2s1 (mixture of isomers) [compound 90]
- IC50 (human plasma kallikrein): 0.109 µM
- IC50 (Factor XIa): > 0.05 µM

Compound: CC(O)c1nc2cc(NC(=O)[C@@H]3CCC4CC(c5c(-n6cnnn6)ccc(Cl)c5F)=CC(=O)N43)ccc2s1 (mixture of isomers) [compound 91]
- IC50 (human plasma kallikrein): 0.115 µM
- IC50 (Factor XIa): > 0.05 µM

Compound: CC(O)c1nc2cc(NC(=O)[C@@H]3CCC4CC(c5c(-n6cnnn6)ccc(Cl)c5F)=CC(=O)N43)ccc2s1 (mixture of isomers) [compound 92]
- IC50 (human plasma kallikrein): 0.0504 µM
- IC50 (Factor XIa): 0.0335 µM

Compound: CCOCCOc1ccc2cc(NC(=O)[C@@H]3CCC4CC(c5c(-n6cc(C(F)(F)F)nn6)ccc(Cl)c5F)=CC(=O)N43)ccc2n1 (mixture of isomers) [compound 107]
- IC50 (human plasma kallikrein): 0.19 µM
- IC50 (Factor XIa): > 0.05 µM

Compound: CO[C@H]1C[C@@H](C(=O)Nc2ccc3nn(C)cc3c2)N2C(=O)C=C(c3c(-n4cnnn4)ccc(Cl)c3F)CC12 (mixture of isomers) [compound 110]
- IC50 (Factor XIa): > 0.1 µM

Compound: COCCn1ncc2cc(NC(=O)[C@@H]3CCC4CC(c5c(-n6cnnn6)ccc(Cl)c5F)=CC(=O)N43)ccc21 (mixture of isomers) [ID No. 4, (3S)-7-(3-chloro-2-fluoro-6-(1H-tetrazol-1-yl)phenyl)-N-(1-(2-methoxyethyl)-1H-indazol-5-yl)-5-oxo-1,2,3,5,8,8a-hexahydroindolizine-3-carboxamide]
- IC50 (human plasma kallikrein): 0.106 µM
- IC50 (Factor XIa): 0.0269 µM

Compound: O=C(O)c1[nH]c2ccc(NC(=O)[C@@H]3CCC4CC(c5c(-n6cnnn6)ccc(Cl)c5F)=CC(=O)N43)cc2c1F (mixture of isomers) [ID No. 26, 5-[[(3S)-7-[3-Chloro-2-fluoro-6-(tetrazol-1-yl)phenyl]-5-oxo-2,3,8,8a-tetrahydro-1H-indolizine-3-carbonyl]amino]-3-fluoro-1H-indole-2-carboxylic acid]
- IC50 (human plasma kallikrein): 0.0604 µM
- IC50 (Factor XIa): 0.0032 µM

Compound: CO[C@H]1C[C@@H](C(=O)Nc2ccc3n[nH]cc3c2)N2C(=O)C=C(c3c(-n4cnnn4)ccc(Cl)c3F)CC12 (mixture of isomers) [ID No. 27, (1S,3S)-7-[3-Chloro-2-fluoro-6-(tetrazol-1-yl)phenyl]-N-(2H-indazol-5-yl)-1-methoxy-5-oxo-2,3,8,8a-tetrahydro-1H-indolizine-3-carboxamide]
- IC50 (Factor XIa): 0.136 µM

Compound: CO[C@H]1C[C@@H](C(=O)Nc2ccc3nccnc3c2)N2C(=O)C=C(c3c(-n4cnnn4)ccc(Cl)c3F)CC12 (mixture of isomers) [ID No. 28, (1S,3S)-7-[3-Chloro-2-fluoro-6-(tetrazol-1-yl)phenyl]-1-methoxy-5-oxo-N-quinoxalin-6-yl-2,3,8,8a-tetrahydro-1H-indolizine-3-carboxamide]
- IC50 (human plasma kallikrein): 0.431 µM
- IC50 (Factor XIa): ~0.189 µM

Compound: CO[C@H]1C[C@@H](C(=O)Nc2ccc3ncccc3c2)N2C(=O)C=C(c3c(-n4cnnn4)ccc(Cl)c3F)CC12 (mixture of isomers) [ID No. 29, (1S,3S)-7-[3-Chloro-2-fluoro-6-(tetrazol-1-yl)phenyl]-1-methoxy-5-oxo-N-(6-quinolyl)-2,3,8,8a-tetrahydro-1H-indolizine-3-carboxamide]
- IC50 (human plasma kallikrein): 0.611 µM
- IC50 (Factor XIa): 0.18 µM

Compound: O=C(Nc1ccc(-c2nc(=O)o[nH]2)cc1)[C@@H]1CCC2CC(c3c(OCC(F)(F)F)ccc(Cl)c3F)=CC(=O)N21 (mixture of isomers) [ID No. 40, (3S)-7-(3-Chloro-2-fluoro-6-(2,2,2-trifluoroethoxy)phenyl)-5-oxo-N-(4-(5-oxo-2,5-dihydro-1,2,4-oxadiazol-3-yl)phenyl)-1,2,3,5,8,8a-hexahydroindolizine-3-carboxamide]
- IC50 (Factor XIa): 0.0308 µM

Compound: Cn1oc(=O)nc1-c1ccc(NC(=O)[C@@H]2CCC3CC(c4c(-n5cnnn5)ccc(Cl)c4F)=CC(=O)N32)cc1 (mixture of isomers) [ID No. 67, (3S)-7-[3-Chloro-2-fluoro-6-(tetrazol-1-yl)phenyl]-N-[4-(2-methyl-5-oxo-1,2,4-oxadiazol-3-yl)phenyl]-5-oxo-2,3,8,8a-tetrahydro-1H-indolizine-3-carboxamide]
- IC50 (Factor XIa): 0.183 µM

Compound: Cn1ccnc1-c1ccc(NC(=O)[C@@H]2CCC3CC(c4c(-n5cnnn5)ccc(Cl)c4F)=CC(=O)N32)cc1 (mixture of isomers) [ID No. 78, (3S)-7-[3-Chloro-2-fluoro-6-(tetrazol-1-yl)phenyl]-N-[4-(1-methylimidazol-2-yl)phenyl]-5-oxo-2,3,8,8a-tetrahydro-1H-indolizine-3-carboxamide]
- IC50 (Factor XIa): 0.0584 µM

Compound: C[C@@H]1C[C@@H](C(=O)Nc2ccc3nccnc3c2)N2C(=O)C=C(c3c(-n4cnnn4)ccc(Cl)c3F)C[C@H]12 (single isomer, unassigned) [ID No. 81, (1R*,3S,8aR*)-7-[3-Chloro-2-fluoro-6-(tetrazol-1-yl)phenyl]-1-methyl-5-oxo-N-quinoxalin-6-yl-2,3,8,8a-tetrahydro-1H-indolizine-3-carboxamide]
- IC50 (Factor XIa): 0.639 µM

Compound: COCCNC(=O)c1ccc(NC(=O)[C@@H]2CCC3CC(c4c(-n5cnnn5)ccc(Cl)c4F)=CC(=O)N32)cc1F (single isomer, unassigned) [ID No. 94, (3S,8aS*)-7-(3-chloro-2-fluoro-6-(1H-tetrazol-1-yl)phenyl)-N-(3-fluoro-4-((2-methoxyethyl)carbamoyl)phenyl)-5-oxo-1,2,3,5,8,8a-hexahydroindolizine-3-carboxamide]
- IC50 (Factor XIa): > 0.05 µM

Compound: O=C(O)C1CCc2ccc(NC(=O)[C@@H]3CC[C@@H]4CC(c5c(-n6cc(C(F)(F)F)nn6)ccc(Cl)c5F)=CC(=O)N43)cc21 (stereo partly drawn) [compound 104]
- IC50 (Factor XIa): > 0.05 µM
